The target of one test is Sodium-dependent serotonin transporter (Rattus norvegicus, UniProt P31652). Nature of the test: Binding affinity determined against Serotonin transporter determined by displacement of [3H]paroxetine from rat cortical membranes. The test is classed as cell membranes, Membrane. In general terms: In a radioligand displacement assay an active substance lowers the binding of a labelled ligand.
Sequence of Sodium-dependent serotonin transporter (P31652 whole entry): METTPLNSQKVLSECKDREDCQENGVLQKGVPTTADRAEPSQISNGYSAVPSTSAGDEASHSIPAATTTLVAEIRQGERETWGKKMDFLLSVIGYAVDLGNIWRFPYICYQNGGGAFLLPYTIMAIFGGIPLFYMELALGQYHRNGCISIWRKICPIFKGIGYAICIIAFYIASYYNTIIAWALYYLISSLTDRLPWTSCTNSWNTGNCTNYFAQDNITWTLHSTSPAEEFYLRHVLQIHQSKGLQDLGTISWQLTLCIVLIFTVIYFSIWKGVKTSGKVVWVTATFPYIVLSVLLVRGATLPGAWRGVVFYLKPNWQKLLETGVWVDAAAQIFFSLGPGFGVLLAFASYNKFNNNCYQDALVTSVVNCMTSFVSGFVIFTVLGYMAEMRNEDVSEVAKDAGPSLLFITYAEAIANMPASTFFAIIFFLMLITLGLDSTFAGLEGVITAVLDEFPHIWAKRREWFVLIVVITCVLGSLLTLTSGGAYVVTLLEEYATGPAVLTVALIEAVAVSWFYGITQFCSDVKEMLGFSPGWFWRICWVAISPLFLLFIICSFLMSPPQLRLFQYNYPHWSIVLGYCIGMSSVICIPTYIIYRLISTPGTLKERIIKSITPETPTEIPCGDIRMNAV
`Fc1ccc2[nH]cc([C@H]3CC[C@@H](NCCOc4cccc5[nH]ccc45)CC3)c2c1`: the affinity corresponds to a Ki of 12.6 nM.
On the same count and under the same terms, in the case of `Fc1ccc2[nH]cc([C@H]3CC[C@H](N4CCN(c5cccc6c5OCCO6)CC4)CC3)c2c1` it was 67.2 nM; in that of `Fc1ccc2[nH]cc([C@H]3CC[C@H](NCC4COc5ccccc5O4)CC3)c2c1` (stereo not given in full), 14.1 nM.
As for `Fc1ccc2[nH]cc([C@H]3CC[C@@H](NCC4COc5ccccc5O4)CC3)c2c1` (stereo not given in full), the Ki – broadly, a measure of affinity in units of concentration, obtained from inhibition or displacement – was determined as 23.2 nM.
On the same count and under the same terms, then `Fc1ccc2[nH]cc([C@H]3CC[C@H](NCCOc4cccc5c4OCCO5)CC3)c2c1`, with 1.05 nM; and `Fc1ccc2[nH]cc([C@H]3CC[C@@H](NCCOc4cccc5c4OCCO5)CC3)c2c1`, with 12.1 nM; and `COc1ccccc1N1CCN([C@H]2CC[C@@H](c3c[nH]c4ccc(F)cc43)CC2)CC1`, with 3.3 nM.
The same measure, in the same setting: in the case of `Fc1ccc2[nH]cc([C@H]3CC[C@H](NCCOc4cccc5[nH]ccc45)CC3)c2c1` it was 1.73 nM; in that of `Fc1ccc2[nH]cc([C@H]3CC[C@@H](N4CCN(c5cccc6c5OCCO6)CC4)CC3)c2c1`, 5.31 nM.
Consider `COc1ccccc1N1CCN([C@H]2CC[C@H](c3c[nH]c4ccc(F)cc43)CC2)CC1`, for which the affinity, expressed as Ki, was 46.1 nM.

In another test the target is T1, 5-hydroxytryptamine receptor 1A (Homo sapiens) (UniProt P08908).
T1 sequence (whole entry): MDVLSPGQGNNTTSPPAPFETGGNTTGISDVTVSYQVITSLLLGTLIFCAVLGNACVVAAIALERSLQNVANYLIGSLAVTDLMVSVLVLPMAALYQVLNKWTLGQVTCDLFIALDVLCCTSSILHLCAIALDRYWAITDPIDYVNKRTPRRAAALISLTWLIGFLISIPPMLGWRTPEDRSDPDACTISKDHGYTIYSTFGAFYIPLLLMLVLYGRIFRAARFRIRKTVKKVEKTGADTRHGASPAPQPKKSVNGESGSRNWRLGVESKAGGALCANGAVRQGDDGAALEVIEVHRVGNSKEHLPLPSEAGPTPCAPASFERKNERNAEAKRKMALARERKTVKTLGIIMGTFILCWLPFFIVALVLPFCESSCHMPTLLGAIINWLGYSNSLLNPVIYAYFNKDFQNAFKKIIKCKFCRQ
As to the kind of experiment: Intrinsic activity towards 5-HT1A receptor using [35S]GTP-gamma-S, binding assay. Format: functional.
For the compound `Fc1ccc2[nH]cc([C@H]3CC[C@@H](NCCOc4cccc5[nH]ccc45)CC3)c2c1`, the Emax (commonly the maximal effect, on the per cent scale that the assay sets) is 7%.
On the same count and under the same terms, then `Fc1ccc2[nH]cc([C@H]3CC[C@H](N4CCN(c5cccc6c5OCCO6)CC4)CC3)c2c1`, with 57%; and `COc1ccccc1OCCN[C@H]1CC[C@H](c2c[nH]c3ccc(F)cc32)CC1`, with 80%; and `Fc1ccc2[nH]cc([C@H]3CC[C@H](NCC4COc5ccccc5O4)CC3)c2c1` (stereo not given in full), with 94%.
Still for that read-out and setting: in the case of `Fc1ccc2[nH]cc([C@H]3CC[C@@H](N4CCN(c5cccc6[nH]ccc56)CC4)CC3)c2c1` it was 10%; in that of `Fc1ccc2[nH]cc([C@H]3CC[C@@H](NCC4COc5ccccc5O4)CC3)c2c1` (stereo not given in full), 44%; in that of `Fc1ccc2[nH]cc([C@H]3CC[C@H](NCCOc4cccc5c4OCCO5)CC3)c2c1`, 43%.
Still for that read-out and setting: then `Fc1ccc2[nH]cc([C@H]3CC[C@@H](NCCOc4cccc5c4OCCO5)CC3)c2c1`, with 27%.
On to `COc1ccccc1N1CCN([C@H]2CC[C@@H](c3c[nH]c4ccc(F)cc43)CC2)CC1`, for which the Emax came to 5%.
Same read-out and setting: in the case of `Fc1ccc2[nH]cc([C@H]3CC[C@H](NCCOc4cccc5[nH]ccc45)CC3)c2c1` it was 59%; in that of `Fc1ccc2[nH]cc([C@H]3CC[C@@H](N4CCN(c5cccc6c5OCCO6)CC4)CC3)c2c1`, 0%; in that of `COc1ccccc1N1CCN([C@H]2CC[C@H](c3c[nH]c4ccc(F)cc43)CC2)CC1`, 29%.
The compound `Fc1ccc2[nH]cc([C@H]3CC[C@H](N4CCN(c5cccc6[nH]ccc56)CC4)CC3)c2c1` returned an Emax of 43%.
The same measure, in the same setting: then `COc1ccccc1OCCN[C@H]1CC[C@@H](c2c[nH]c3ccc(F)cc32)CC1`, with 22%.

Another test deals with T2, 5-hydroxytryptamine receptor 1A (Homo sapiens, UniProt P08908).
T2 sequence (P08908 whole entry): T1 sequence (whole entry)
Nature of the test: Binding affinity determined against human 5-hydroxytryptamine 1A receptors transfected into CHO cells. The test is classed as cell-based.
Turning to `COc1ccccc1OCCN[C@H]1CC[C@H](c2c[nH]c3ccc(F)cc32)CC1`, the Ki came out at 22.4 nM.
Same read-out and setting: in the case of `Fc1ccc2[nH]cc([C@H]3CC[C@H](NCC4COc5ccccc5O4)CC3)c2c1` (stereo not given in full) it was 194 nM; in that of `Fc1ccc2[nH]cc([C@H]3CC[C@@H](NCC4COc5ccccc5O4)CC3)c2c1` (stereo not given in full), 332 nM; in that of `COc1ccccc1N1CCN([C@H]2CC[C@@H](c3c[nH]c4ccc(F)cc43)CC2)CC1`, 129 nM.
Still for that read-out and setting: in the case of `COc1ccccc1N1CCN([C@H]2CC[C@H](c3c[nH]c4ccc(F)cc43)CC2)CC1` it was 14.3 nM; in that of `COc1ccccc1OCCN[C@H]1CC[C@@H](c2c[nH]c3ccc(F)cc32)CC1`, 307 nM.

(Values after ChEMBL document CHEMBL1141977 (Bioorg Med Chem Lett, 2005).)
